Legend:
[1] = Residual PAA and HP in corn mash by Hach DPD total chlorine test; format: physicochemical
Description: At the point of injection, the mash temperature was 140° F. and the mash flow rate was 110 gpm. The pumps used to pump both the HP and PAA solution were Prominent diaphragm pumps fitted with Teflon liquid ends. The dose of the PAA solution was 15 ppm (as PAA) and the dose of the HP was 40 ppm (as peroxide). However, the PAA solution and HP were fed for only 15 hours of the 23 hour fermentor fill time making the overall dose 9.8 ppm of PAA solution and 26 ppm of HP.
Samples were taken every hour at the mash cooler exit and fermentation tank. The samples were tested using a Hach DPD total chlorine test. Three (3) ml of sample was added to a test tube, then one DPD powder pillow was added to the sample. […] Peracetic acid (PAA) concentration was estimated based on the hue of pink color after 30 seconds.

yeast = assay: Full scale ethanol plant trial: alcohol production, yeast counts/viability, glycerol; format: cell-based, Saccaromyces cerevisiae
Description: A number of full scale trials were conducted in order to evaluate the efficacy of introducing peracetic acid and hydrogen peroxide into a fermentation system was evaluated and compared to the use of conventional antibiotics. The ethanol plant tested is a 20 MGPY plant having a modified Delta T design. The plant process flow is as follows: • Corn mash cooler stage one→Corn mash cooler stage 2→fermenter←→fermenter cooler→distillation The corn mash enters the stage one cooler at 180° F. and is cooled to 140° F. It then enters the stage 2 cooler and is cooled to 90° F. Flow through the cooler is 110 gpm. From the stage 2 cooler the mash is sent to the fermenter. Once in the fermenter, the corn mash is re-circulated through a plate and frame mash cooler. When the fermenter has been filled for 30 minutes, yeast is added to the recirculating corn mash. The fermenter takes about 23 hours to fill. Once filled, fermentation begins to accelerate releasing heat which is dissipated in the fermenter cooler. The fermenter mash is sent to distillation about 56 hours after the fermenter is filled. System parameters are as follows:
During fermentation, carbohydrates, ethanol, and organic acids are monitored in order to insure that the fermentation process is occurring normally and to insure that undesirable bacteria are kept under control. […]

## OO [HP, hydrogen peroxide]
[1]; after 3 hours
  HP in fermenter corn mash: not detectable

## CC(=O)OO [PAA, peracetic acid]
[1]; after two hours
  PAA in fermenter corn mash: not detectable
[1]; up to two hours into filling
  PAA in fermenter corn mash: positive

## Virginiamycin [antibiotics]
yeast
  glycerol levels (indicative of stress on the yeast): tended to increase
